From patent US9992981B2, “Optogenetic control of reward-related behaviors” (The Board of Trustees of the Leland Stanford Junior …, priority 2010, dated 2018)
Where two headings read alike, the source gives them in different places.

Key:
[1] = test system: ChAT neurons; assay: Cocaine response of ChAT cells in slice (spontaneous firing); assay type: cell-based, mice; conditions: 5 μM cocaine bath, at 10 min; baseline 0.60±0.41 Hz; n=7
Description: Coronal cerebral brain slices were prepared from adult mice with virus previously injected (>2 weeks prior to slicing), using standard techniques in strict accordance with a protocol approved by the Animal Care and Use Committee at Stanford University. Coronal slices 250 μm thick were cut with a vibratome using a sapphire blade in ice cold N-methyl-D-glucamine (NMDG)-based cutting solution containing 135 mM NMDG, 1 mM KCl, 1.2 mM KH2PO4, 20 mM choline bicarbonate, 10 mM glucose, 1.5 mM MgCl2 and 0.5 mM CaCl2. Slices were maintained thereafter in artificial cerebral spinal fluid (ACSF) containing 119 mM NaCl, 2.5 mM KCl, 2.5 mM CaCl2, 1.3 mM MgCl2, 1 mM NaH2PO4, 26.2 mM NaHCO3 and 11 mM glucose. Slices were maintained in ACSF at 37° C. for 30 minutes, and thereafter at room temperature. ACSF was bubbled constantly with 95% O2/5% CO2 and heated to 34° C. for all experiments. Neurons were visualized on an upright microscope (Leica DM-LFSA) equipped with both DIC optics and a filter set for visualizing eYFP using a ×40 water-immersion objective and a charge-coupled device (CCD) camera. […] Currents filtered at 2 kHz, digitized at 50 kHz, and recorded to disk using pClamp10 software (Axon Instruments).

[2] = after 15 minutes, cited from earlier work
[3] = test system: ChAT interneurons of the NAc; assay: Conditioned place preference (CPP); assay type: in vivo, mice
[4] = test system: MSNs; assay: IPSCs in MSNs during photostimulation of ChR2-expressing ChAT neurons in acute NAc slices; assay type: cell-based, mice
Description: Coronal cerebral brain slices were prepared from adult mice with virus previously injected (>2 weeks prior to slicing), using standard techniques in strict accordance with a protocol approved by the Animal Care and Use Committee at Stanford University. Coronal slices 250 μm thick were cut with a vibratome using a sapphire blade in ice cold N-methyl-D-glucamine (NMDG)-based cutting solution containing 135 mM NMDG, 1 mM KCl, 1.2 mM KH2PO4, 20 mM choline bicarbonate, 10 mM glucose, 1.5 mM MgCl2 and 0.5 mM CaCl2. Slices were maintained thereafter in artificial cerebral spinal fluid (ACSF) containing 119 mM NaCl, 2.5 mM KCl, 2.5 mM CaCl2, 1.3 mM MgCl2, 1 mM NaH2PO4, 26.2 mM NaHCO3 and 11 mM glucose. Slices were maintained in ACSF at 37° C. for 30 minutes, and thereafter at room temperature. ACSF was bubbled constantly with 95% O2/5% CO2 and heated to 34° C. for all experiments. Neurons were visualized on an upright microscope (Leica DM-LFSA) equipped with both DIC optics and a filter set for visualizing eYFP using a ×40 water-immersion objective and a charge-coupled device (CCD) camera. Whole-cell recordings were made from neurons using the electrode solution containing 120 mM potassium gluconate, 20 mM HEPES, 10 mM EGTA, 1 mM MgCl2, 2 mM Na-ATP, and 0.2 mM Na-GTP (pH 7.3, 290 mOsm/L); in experiments recording IPSCs, KCl was used to replace potassium gluconate. Pipette resistances were 3-5 MΩ, and recordings were made without series resistance compensation. Membrane potentials have been corrected for the error resulting from the liquid junction potentials. The holding potential (VM) for voltage-clamp experiments was −70 mV. […] […] Photocurrents were evoked using an optical switch with a 300W xenon lamp and either a 470±20 nm or a 580±20 nm bandpass filters; light power at the specimen was 11.52 mW mm^−2 (470 nm) or 10.64 mW mm^−2 (580 nm). Currents filtered at 2 kHz, digitized at 50 kHz, and recorded to disk using pClamp10 software (Axon Instruments).

[5] = Wavelength sensitivity of identified opsins (Tables 1 and 2); conditions: Table 1, opsins for inhibition

## COC(=O)[C@H]1[C@@H](OC(=O)c2ccccc2)C[C@@H]2CC[C@H]1N2C [cocaine, benzoylmethylecgonine]
[1]
  firing rate of ChAT neurons after cocaine: 1.74±0.56 Hz
[2]; i.p. 10 mg/kg
  cocaine in the brain: 4.7 µM
[2]; i.p. 20 mg/kg
  cocaine in the brain: 9.4 µM
[3]; ChAT::Cre+ (eNphR3.0 inhibition paired with cocaine), 10 mg/kg
  Conditioned side (min), total time on cocaine-paired side on testing day: 10.3 min
[3]; ChAT::Cre+ (eNphR3.0 inhibition paired with cocaine), 20 mg/kg
  Conditioned side (min), total time on cocaine-paired side on testing day: 10.7 min
[3]; ChAT::Cre+ (eNphR3.0 inhibition paired with cocaine), 40 mg/kg
  Conditioned side (min), total time on cocaine-paired side on testing day: 10.5 min
[3]; ChAT::Cre− control littermates, 10 mg/kg
  Conditioned side (min), total time on cocaine-paired side on testing day: 8.5 min
[3]; ChAT::Cre− control littermates, 20 mg/kg
  Conditioned side (min), total time on cocaine-paired side on testing day: 14.2 min
[3]; ChAT::Cre− control littermates, 40 mg/kg
  Conditioned side (min), total time on cocaine-paired side on testing day: 9.2 min

## CNC1(C)C2CCC(C2)C1(C)C (centres unmarked) [mecamylamine]
[4]; 10 μM mecamylamine, light alone raised 3.4+/−1.3 Hz to 10.1+/−1.2 Hz, 470 nm, 10 Hz
  IPSC frequency with light and mecamylamine: 5.1+/−1.8 Hz
[4]; n=5, P<0.05
  effect on light-evoked increase of IPSC frequency: attenuated

## Br.COc1ccc(-c2ccc(=N)n(CCCC(=O)O)n2)cc1 [SR-95531]
[4]; SR-95531 (5 mM), NBQX and RS-CPP present
  effect on light-evoked synaptic currents in MSN: blocked

B1: NpHR: halorhodopsin from Natronomonas pharaonis (protein, UniProt P15647 1-291, looked up)
Halorhodopsin: MTETLPPVTESAVALQAEVTQRELFEFVLNDPLLASSLYINIALAGLSILLFVFMTRGLDDPRAKLIAVSTILVPVVSIASYTGLASGLTISVLEMPAGHFAEGSSVMLGGEEVDGVVTMWGRYLTWALSTPMILLALGLLAGSNATKLFTAITFDIAMCVTGLAAALTTSSHLMRWFWYAISCACFLVVLYILLVEWAQDAKAAGTADMFNTLKLLTVVMWLGYPIVWALGVEGIAVLPVGVTSWGYSFLDIVAKYIFAFLLLNYLTSNESVVSGSILDVPSASGTPADD
[5]
  Wavelength Sensitivity (max): 589 nm max

B2: BR: opsin for inhibition, biological origin Halobacterium helobium (protein, UniProt P02945 14-262, looked up)
Bacteriorhodopsin: QAQITGRPEWIWLALGTALMGLGTLYFLVKGMGVSDPDAKKFYAITTLVPAIAFTMYLSMLLGYGLTMVPFGGEQNPIYWARYADWLFTTPLLLLDLALLVDADQGTILALVGADGIMIGTGLVGALTKVYSYRFVWWAISTAAMLYILYVLFFGFTSKAESMRPEVASTFKVLRNVTVVLWSAYPVVWLIGSEGAGIVPLNIETLLFMVLDVSAKVGFGLILLRSRAIFGEAEAPEPSAGDGAAATSD
[5]
  Wavelength Sensitivity (max): 570 nm max
